Results as given in patent US12383539B2 (Cavion, Inc., priority 2018, dated 2025).

Experiments:
[1] = tested on: patients with essential tremor; assay: T-CALM: TETRAS activities of daily living subscale (TETRAS-ADL); format: in vivo, human; settings: for TETRAS-ADL score (change from baseline), Mean (SD) / TETRAS-ADL score (change from baseline), Median / TETRAS-ADL score (change from baseline), Median (minimum, maximum): post-hoc
Source text: The sum of the individual scores provides the overall score, ranging from 0 to 48. The complete TETRAS ADL Subscale is as follows.
Rate tremor's impact on activities of daily living (0-4 scoring).
• 0=Normal. • 1=Slight voice tremulousness, only when “nervous”. • 2=Mild voice tremor. All words easily understood. • 3=Moderate voice tremor. Some words difficult to understand. • 4=Severe voice tremor. Most words difficult to understand. 2. Feeding with a Spoon • 0=Normal. • 1=Slightly abnormal. […] Spills a little. • 3=Moderately abnormal. Spills a lot or changes strategy to complete task such as using two hands or leaning over. • 4=Severely abnormal. Cannot feed with a spoon. 3. Drinking from a Glass • 0=Normal. • 1=Slightly abnormal. […] Spills a little. • 3=Moderately abnormal. Spills a lot or changes strategy to complete task such as using two, hands or leaning over. • 4=Severely abnormal. Cannot drink from a glass or uses straw or sippy cup. 4. Hygiene • 0=Normal. • 1=Slightly abnormal. […] Some difficulty but can complete task. • 3=Moderately abnormal. Unable to do most fine tasks such as putting on lipstick or shaving unless changes strategy such as using two hands or using the less affected hand. 4=Severely abnormal. Cannot complete hygiene tasks independently. 5. Dressing • 0=Normal. • 1=Slightly abnormal. […] Able to do everything but has difficulty due to tremor. • 3=Moderately abnormal. Unable to do most dressing unless changes strategy such as using Velcro, buttoning shirt before putting it on or avoiding shoes with laces. • 4=Severely abnormal. Cannot dress independently. 6. Pouring • 0=Normal. • 1=Slightly abnormal. […] Must be very careful to avoid spilling but may spill occasionally. • 3=Moderately abnormal. Must use two hands or uses other strategies to avoid spilling. • 4=Severely abnormal. Cannot pour. 7. Carrying Food Trays, Plates or Similar Items • 0=Normal. • 1=Slightly abnormal. […] Must be very careful to avoid spilling items on food tray. • 3=Moderately abnormal. Uses strategies such as holding tightly against body to carry. • 4=Severely abnormal. Cannot carry food trays or similar items. 8. Using Keys • 0=Normal. • 1=Slightly abnormal. Tremor is present but can insert key with one hand without difficulty. • 2=Mildly abnormal. Commonly misses target but still routinely puts key in lock with one hand. • 3=Moderately abnormal. Needs to use two hands or other strategies to put key in lock. • 4=Severely abnormal. Cannot put key in lock. 9. Writing • 0=Normal. • 1=Slightly abnormal. […] Difficulty writing due to tremor. • 3=Moderately abnormal. Cannot write without using strategies such as holding the writing hand with the other hand, holding pen differently or using large pen. • 4=Severely abnormal. Cannot write. 10. Working. If Patient is Retired, Ask as if they were Still Working. If the Patient is a Housewife, Ask the Question as it Relates to Housework: • 0=Normal. • 1=Slightly abnormal. […] Tremor interferes with work; able to do everything, but with errors. • 3=Moderately abnormal. Unable to continue working without using strategies such as changing jobs or using special equipment. • 4=Severely abnormal. Cannot perform any job or household work. 11. Overall Disability with the Most Affect Task (Name Task, e.g. Using Computer Mouse, Writing, Etc.) • Task ______ • 0=Normal. • 1=Slightly abnormal. […] Tremor interferes with task but still able to perform task. • 3=Moderately abnormal. Can do task but must use strategies. • 4=Severely abnormal. Cannot do the task. 12.
Analyses of the TETRAS-ADL was conducted using the same type of ANCOVA model as described for the TETRAS-PS, using two-sided tests at the alpha=0.05 level of significance (FIG. 2 and Table 2).

[2] = Healthy volunteer PK studies PN001/PN002 with IR capsules; format: in vivo, human
[3] = patients Minimally Improved by CGI-I, Day 15
[4] = patients Minimally Improved by CGI-I, Day 28
[5] = patients Minimally Improved by PGIC, Day 15
[6] = patients Minimally Improved by PGIC, Day 28
[7] = Average of the single-dose studies (dose 16)

SMILES: CC(C)c1ccc(CC(=O)N[C@H](C)c2ccc(OCC(F)(F)F)cn2)cc1 [CX-8998]
- responders: improvement of at least 5 points by TETRAS-ADL score, % ([1]; Day 15): (46.2%)
- responders: improvement of at least 5 points by TETRAS-ADL score, number ([1]; Day 15, N 39): 18
- TETRAS-ADL change from baseline 0 change: subjects, number (%) ([1]; Day 15, N = 39): 2 (5.1%)
- TETRAS-ADL change from baseline >0 to 1 point improvement: subjects, number (%) ([1]; Day 15, N = 39): 5 (12.8%)
- TETRAS-ADL change from baseline >0 to 1 point worsening: subjects, number (%) ([1]; Day 15, N = 39): 1 (2.6%)
- TETRAS-ADL change from baseline >1 to 2.5 point improvement: subjects, number (%) ([1]; Day 15, N = 39): 2 (5.1%)
- TETRAS-ADL change from baseline >1 to 2.5 point worsening: subjects, number (%) ([1]; Day 15, N = 39): 3 (7.7%)
- TETRAS-ADL change from baseline >2.5 to 5 point improvement: subjects, number (%) ([1]; Day 15, N = 39): 7 (17.9%)
- TETRAS-ADL change from baseline >2.5 to 5 point worsening: subjects, number (%) ([1]; Day 15, N = 39): 3 (7.7%)
- TETRAS-ADL change from baseline >5 to 10 point improvement: subjects, number (%) ([1]; Day 15, N = 39): 11 (28.2%)
- TETRAS-ADL change from baseline >5 to 10 point worsening: subjects, number (%) ([1]; Day 15, N = 39): 0
- TETRAS-ADL change from baseline >10 point improvement: subjects, number (%) ([1]; Day 15, N = 39): 5 (12.8%)
- TETRAS-ADL change from baseline >10 point worsening: subjects, number (%) ([1]; Day 15, N = 39): 0
- responders: improvement of at least 5 points by TETRAS-ADL score, % ([1]; Day 28): (29.7%)
- responders: improvement of at least 5 points by TETRAS-ADL score, number ([1]; Day 28, N 37): 11
- TETRAS-ADL change from baseline 0 change: subjects, number (%) ([1]; Day 28, N = 37): 5 (13.5%)
- TETRAS-ADL change from baseline >0 to 1 point improvement: subjects, number (%) ([1]; Day 28, N = 37): 2 (5.4%)
- TETRAS-ADL change from baseline >0 to 1 point worsening: subjects, number (%) ([1]; Day 28, N = 37): 3 (8.1%)
- TETRAS-ADL change from baseline >1 to 2.5 point improvement: subjects, number (%) ([1]; Day 28, N = 37): 3 (8.1%)
- TETRAS-ADL change from baseline >1 to 2.5 point worsening: subjects, number (%) ([1]; Day 28, N = 37): 3 (8.1%)
- TETRAS-ADL change from baseline >2.5 to 5 point improvement: subjects, number (%) ([1]; Day 28, N = 37): 7 (18.9%)
- TETRAS-ADL change from baseline >2.5 to 5 point worsening: subjects, number (%) ([1]; Day 28, N = 37): 3 (8.1%)
- TETRAS-ADL change from baseline >5 to 10 point improvement: subjects, number (%) ([1]; Day 28, N = 37): 6 (16.2)
- TETRAS-ADL change from baseline >5 to 10 point worsening: subjects, number (%) ([1]; Day 28, N = 37): 0
- TETRAS-ADL change from baseline >10 point improvement: subjects, number (%) ([1]; Day 28, N = 37): 5 (13.5%)
- TETRAS-ADL change from baseline >10 point worsening: subjects, number (%) ([1]; Day 28, N = 37): 0
- TETRAS-ADL score (change from baseline), Mean (SD) [1, 3]: −3.7 (4.21)
- TETRAS-ADL score (change from baseline), Median [1, 3]: −2.0
- TETRAS-ADL score (change from baseline), Mean (SD) [1, 4]: −4.4 (8.10)
- TETRAS-ADL score (change from baseline), Median (minimum, maximum) [1, 4]: −1.0 (−24, 3)
- TETRAS-ADL score (change from baseline), Mean (SD) [1, 5]: −3.3 (4.27)
- TETRAS-ADL score (change from baseline), Median [1, 5]: −4.0
- TETRAS-ADL score (change from baseline), Mean (SD) [1, 6]: −1.6 (3.84)
- TETRAS-ADL score (change from baseline), Median (minimum, maximum) [1, 6]: −1.0 (−7, 3)
- AUC0-24 [2, 7]: 8.22 µM·h
- AUCinf [2, 7]: 13.2 µM·h
- Cmax [2, 7]: 1060 nM
- AUC0-24 ([2]; PN001 Part 1, 16 mg, 1 dose): 8.52 µM·h
- AUCinf ([2]; PN001 Part 1, 16 mg, 1 dose): 12.5 µM·h
- AUC0-24 ([2]; PN001 Part 2, 18 mg, 1 dose): 9.93 µM·h
- AUCinf ([2]; PN001 Part 2, 18 mg, 1 dose): 14.6 µM·h
- Cmax ([2]; PN001 Part 2, 18 mg, 1 dose, healthy volunteers): 1180 nM
- AUC0-24 ([2]; PN002 Part 1, 18 mg, 1 dose): 9.44 µM·h
